Assay type in all cases: biochemical
One experiment addresses Human plasma kallikrein (Homo sapiens (Human), UniProt P03952). The experiment in a line: Determination of the IC50 for plasma kallikrein. The following applies: 37° C., substrate H-DPro-Phe-Arg-AFC, read-out: IC50 (human PKal). An outline of the steps: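 Residual activity (initial rate, absorbance at 410 nm) gave the IC50. Reactions at 37° C combined human plasma kallikrein, substrate H-DPro-Phe-Arg-AFC and a range of inhibitor concentrations.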

A further experiment deals with Human KLK1 (Homo sapiens (Human), UniProt P06870). As to the kind of experiment: Determination of the IC50 for KLK1. Conditions: Human KLK1, 37° C., substrate H-DVal-Leu-Arg-AFC; Table 13. The procedure, abridged:
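Test compound at various concentrations was incubated with human KLK1 and the fluorogenic substrate H-DVal-Leu-Arg-AFC at 37° C. Absorbance change at 410 nm gave the initial reaction rate, from which IC50 was obtained.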

A further experiment addresses Factor XIIa (Homo sapiens (Human), UniProt P00748). The experiment in a line: Determination of enzyme selectivity: Factor XIIa. Conditions: fluorogenic substrate at Km concentration. The protocol: Determination of Enzyme Selectivity
Human serine protease enzymes plasmin, thrombin, trypsin, Factor Xa and Factor XIIa were assayed for enzymatic activity using an appropriate fluorogenic substrate. Protease activity was measured by monitoring the accumulation of liberated fluorescence from the substrate over 5 minutes. The linear rate of fluorescence increase per minute was expressed as percentage (%) activity. The Km for the cleavage of each substrate was determined by standard transformation of the Michaelis-Menten equation.

Results on 19 molecules are retold here after US9234000B2, “Benzylamine derivatives as inhibitors of plasma kallikrein” (KalVista Pharmaceuticals Limited, priority 2011, dated 2016).

Factor XIIa, sequence (P00748 373-615): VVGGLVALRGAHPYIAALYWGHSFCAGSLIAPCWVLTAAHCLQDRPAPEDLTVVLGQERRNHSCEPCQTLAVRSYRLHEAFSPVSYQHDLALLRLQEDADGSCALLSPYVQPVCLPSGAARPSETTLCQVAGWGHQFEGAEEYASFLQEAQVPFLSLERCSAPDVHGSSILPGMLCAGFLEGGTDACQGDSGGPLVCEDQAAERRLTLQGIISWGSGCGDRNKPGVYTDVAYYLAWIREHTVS
Human plasma kallikrein, sequence (P03952 391-638): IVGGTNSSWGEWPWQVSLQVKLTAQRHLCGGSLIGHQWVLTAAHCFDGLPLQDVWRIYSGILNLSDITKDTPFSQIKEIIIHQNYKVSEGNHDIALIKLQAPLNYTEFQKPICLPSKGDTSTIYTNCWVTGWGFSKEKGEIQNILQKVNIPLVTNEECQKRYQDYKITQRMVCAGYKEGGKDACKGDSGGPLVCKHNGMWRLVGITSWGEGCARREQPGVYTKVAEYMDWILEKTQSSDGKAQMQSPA
Human plasma kallikrein, sequence (P03952 20-390 partner): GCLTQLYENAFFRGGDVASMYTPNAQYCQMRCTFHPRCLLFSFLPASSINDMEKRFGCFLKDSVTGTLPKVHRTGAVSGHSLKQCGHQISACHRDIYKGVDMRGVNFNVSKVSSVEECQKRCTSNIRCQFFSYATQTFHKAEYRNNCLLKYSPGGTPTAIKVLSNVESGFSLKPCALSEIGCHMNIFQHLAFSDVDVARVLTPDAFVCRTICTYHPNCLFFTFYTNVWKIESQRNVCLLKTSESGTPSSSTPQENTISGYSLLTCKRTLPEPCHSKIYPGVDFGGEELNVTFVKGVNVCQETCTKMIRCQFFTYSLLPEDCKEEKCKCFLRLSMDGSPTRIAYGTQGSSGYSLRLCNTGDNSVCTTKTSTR
Human KLK1, sequence (P06870 25-262): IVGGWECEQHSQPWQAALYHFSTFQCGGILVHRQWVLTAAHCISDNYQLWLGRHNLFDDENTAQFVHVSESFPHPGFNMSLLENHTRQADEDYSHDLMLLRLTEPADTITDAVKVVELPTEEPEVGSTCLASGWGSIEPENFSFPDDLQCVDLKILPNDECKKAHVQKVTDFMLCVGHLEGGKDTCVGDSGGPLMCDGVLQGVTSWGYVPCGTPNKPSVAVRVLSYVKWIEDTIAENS

With `CCOc1ccc(C[C@@H](NC(=O)c2cc(Cl)cc(Cl)c2)C(=O)N[C@@H](Cc2ccccc2)C(=O)NCc2ccc(CN)cc2)cc1` [Example 94, N-[(R)-1-[(S)-1-(4-Aminomethyl-benzylcarbamoyl)-2-phenyl-ethylcarbamoy]-2-(4-ethoxy-phenyl)-ethyl]-3,5-dichloro-benzamide], the IC50 at Human plasma kallikrein was 1.08 µM; against Human KLK1, over 10 µM; against Factor XIIa it was over 10 µM.
Consider `CCOc1ccc(C[C@@H](NC(=O)/C=C/c2ccccc2)C(=O)N[C@@H](Cc2ccccc2)C(=O)NCc2ccc(CN)cc2)cc1` [Example 96, (E)-N-[(R)-1-[(S)-1-(4-Aminomethyl-benzylcarbamoyl)-2-phenyl-ethylcarbamoyl]-2-(4-ethoxy-phenyl)-ethyl]-3-phenyl-acrylamide], for which the IC50 is 0.764 µM at Human plasma kallikrein, over 10 µM against Human KLK1 and over 10 µM on Factor XIIa.
In the case of `CCOc1ccc(C[C@@H](NC(=O)c2ccccc2)C(=O)N[C@@H](Cc2ccccc2)C(=O)NCc2ccc(CN)c(C)c2)cc1` [Example 182, N-[(R)-1-[(S)-1-(4-Aminomethyl-3-methyl-benzylcarbamoyl)-2-phenyl-ethylcarbamoyl]-2-(4-ethoxy-phenyl)-ethyl]-benzamide], the IC50 is 0.015 µM at Human plasma kallikrein, over 10 µM against Human KLK1 and over 10 µM against Factor XIIa.
As for `CCOc1ccc(C[C@@H](NC(=O)c2sccc2N)C(=O)N[C@@H](Cc2cscn2)C(=O)NCc2ccc(CN)cc2)cc1` [Example 183, 3-Amino-thiophene-2-carboxylic acid [(R)-1-[(S)-1-(4-aminomethyl-benzylcarbamoyl)-2-thiazol-4-yl-ethylcarbamoyl]-2-(4-ethoxy-phenyl)-ethyl]-amide], the IC50 at Human plasma kallikrein is 0.016 µM; against Human KLK1, over 10 µM; on Factor XIIa, over 10 µM.
`CCOc1ccc(C[C@@H](NC(=O)c2sccc2Cl)C(=O)N[C@@H](Cc2cscn2)C(=O)NCc2ccc(CN)cc2)cc1` [Example 184, 3-Chloro-thiophene-2-carboxylic acid [(R)-1-[(S)-1-(4-aminomethyl-benzylcarbamoyl)-2-thiazol-4-yl-ethylcarbamoyl]-2-(4-ethoxy-phenyl)-ethyl]-amide]: the concentration for half-maximal inhibition (IC50) was 0.01 µM at Human plasma kallikrein, over 10 µM against Human KLK1 and over 10 µM against Factor XIIa.
As to `CCOc1ccc(C[C@@H](NC(=O)c2ccc(C)cc2)C(=O)N[C@@H](Cc2cscn2)C(=O)NCc2ccc(CN)cc2)cc1` [Example 185, N-[(R)-1-[(S)-1-(4-Aminomethyl-benzylcarbamoyl)-2-thiazol-4-yl-ethylcarbamoyl]-2-(4-ethoxy-phenyl)-ethyl]-4-methyl-benzamide], the IC50 at Human plasma kallikrein is 0.049 µM; against Human KLK1, over 10 µM; at Factor XIIa, over 10 µM.
`CCOc1ccc(C[C@@H](NC(=O)c2[nH]ccc2C)C(=O)N[C@@H](Cc2csc3ccccc23)C(=O)NCc2ccc(CN)cc2)cc1` [Example 186, 3-Methyl-1H-pyrrole-2-carboxylic acid [(R)-1-[(S)-1-(4-aminomethyl-benzylcarbamoyl)-2-benzo[b]thiophen-3-yl-ethylcarbamoyl]-2-(4-ethoxy-phenyl)-ethyl]-amide]: the concentration for half-maximal inhibition (IC50) was 0.014 µM on Human plasma kallikrein, 3.8 µM against Human KLK1 and over 10 µM at Factor XIIa.
Regarding `CCOc1ccc(C[C@@H](NC(=O)c2sccc2N)C(=O)N[C@@H](Cc2cscn2)C(=O)NCc2ccc(CN)cc2)cc1` [Example 187, 3-Amino-thiophene-2-carboxylic acid [(R)-1-[(S)-1-(4-aminomethyl-benzylcarbamoyl)-2-thiazol-4-yl-ethylcarbamoyl]-2-(4-ethoxy-phenyl)-ethyl]-amide], the IC50 is 0.007 µM at Human plasma kallikrein, over 10 µM at Human KLK1 and over 10 µM at Factor XIIa.
Turning to `CCOc1ccc(C[C@@H](NC(=O)c2sccc2NC(C)=O)C(=O)N[C@@H](Cc2csc3ccccc23)C(=O)NCc2ccc(CN)cc2)cc1` [Example 188, 3-Acetylamino-thiophene-2-carboxylic acid [(R)-1-[(S)-1-(4-aminomethyl-benzylcarbamoyl)-2-benzo[b]thiophen-3-yl-ethylcarbamoyl]-2-(4-ethoxy-phenyl)-ethyl]-amide], the IC50 on Human plasma kallikrein was 0.036 µM; against Human KLK1, over 10 µM; on Factor XIIa it was over 10 µM.
Take `CCOc1ccc(C[C@@H](NC(=O)c2cccc(C)c2)C(=O)N[C@@H](Cc2cccnc2)C(=O)NCc2ccc(CN)cc2)cc1` [Example 189, N-[(R)-1-[(S)-1-(4-Aminomethyl-benzylcarbamoyl)-2-pyridin-3-yl-ethylcarbamoyl]-2-(4-ethoxy-phenyl)-ethyl]-3-methyl-benzamide]: the half-maximal inhibitory concentration (IC50) was 0.023 µM on Human plasma kallikrein, over 10 µM against Human KLK1 and over 10 µM against Factor XIIa.
Take `CCOc1ccc(C[C@@H](NC(=O)c2ccccc2C)C(=O)N[C@@H](Cc2cccnc2)C(=O)NCc2ccc(CN)cc2)cc1` [Example 190, N-[(R)-1-[(S)-1-(4-Aminomethyl-benzylcarbamoyl)-2-pyridin-3-yl-ethylcarbamoyl]-2-(4-ethoxy-phenyl)-ethyl]-2-methyl-benzamide]: the IC50 is 0.028 µM on Human plasma kallikrein, over 10 µM on Human KLK1 and over 10 µM at Factor XIIa.
Consider `CCOc1ccc(C[C@@H](NC(=O)c2[nH]c(C)cc2C)C(=O)N[C@@H](Cc2ccccc2)C(=O)NCc2ccc(CN)cc2)cc1` [Example 191, 3,5-Dimethyl-1H-pyrrole-2-carboxylic acid [(R)-1-[(S)-1-(4-aminomethyl-benzylcarbamoyl)-2-phenyl-ethylcarbamoyl]-2-(4-ethoxy-phenyl)-ethyl]-amide], for which the IC50 at Human plasma kallikrein is 0.02 µM; against Human KLK1, over 10 µM; against Factor XIIa, over 10 µM.
Take `CCOc1ccc(C[C@@H](NC(=O)c2ccccc2)C(=O)N[C@@H](Cc2cccnc2)C(=O)NCc2ccc(CN)c(C)c2)cc1` [Example 192, N-[(R)-1-[(S)-1-(4-Aminomethyl-3-methyl-benzylcarbamoyl)-2-pyridin-3-yl-ethylcarbamoyl]-2-(4-ethoxy-phenyl)-ethyl]-benzamide]: the concentration for half-maximal inhibition (IC50) is 0.012 µM at Human plasma kallikrein, over 10 µM on Human KLK1 and over 10 µM against Factor XIIa.
On to `CCOc1ccc(C[C@@H](NC(=O)c2sccc2NC(C)=O)C(=O)N[C@@H](Cc2ccsc2)C(=O)NCc2ccc(CN)cc2)cc1` [Example 193, 3-Acetylamino-thiophene-2-carboxylic acid [(R)-1-[(S)-1-(4-aminomethyl-benzylcarbamoyl)-2-thiophen-3-yl-ethylcarbamoyl]-2-(4-ethoxy-phenyl)-ethyl]-amide], for which the half-inhibitory concentration (IC50) on Human plasma kallikrein was 0.025 µM; at Human KLK1 it was over 10 µM; against Factor XIIa, over 10 µM.
Regarding `CCOc1ccc(C[C@@H](NC(=O)c2sccc2N)C(=O)N[C@@H](Cc2csc3ccccc23)C(=O)NCc2ccc(CN)cc2)cc1` [Example 194, 3-Amino-thiophene-2-carboxylic acid [(R)-1-[(S)-1-(4-aminomethyl-benzylcarbamoyl)-2-benzo[b]thiophen-3-yl-ethylcarbamoyl]-2-(4-ethoxy-phenyl)-ethyl]-amide], the IC50 was 0.013 µM at Human plasma kallikrein, 7.1 µM against Human KLK1 and over 10 µM on Factor XIIa.
The like results for `CCOc1ccc(C[C@@H](NC(=O)c2sccc2NC(C)=O)C(=O)N[C@@H](Cc2csc3ccccc23)C(=O)NCc2ccc(CN)cc2)cc1` [Example 195, 3-Acetylamino-thiophene-2-carboxylic acid [(R)-1-[(S)-1-(4-aminomethyl-benzylcarbamoyl)-2-benzo[b]thiophen-3-yl-ethylcarbamoyl]-2-(4-ethoxy-phenyl)-ethyl]-amide] were, in that order, 0.014 µM, over 10 µM and over 10 µM.
For `CCOc1ccc(C[C@@H](NC(=O)c2sccc2Cl)C(=O)N(C)[C@@H](Cc2ccccc2)C(=O)NCc2ccc(CN)cc2)cc1` [Example 196, 3-Chloro-thiophene-2-carboxylic acid [(R)-1-{[(S)-1-(4-aminomethyl-benzylcarbamoyl)-2-phenyl-ethyl]-methyl-carbamoyl}-2-(4-ethoxy-phenyl)-ethyl]-amide], in that order: 0.032 µM, 9.9 µM and over 10 µM.
The like results for `CCOc1ccc(C[C@@H](NC(=O)c2ccccc2)C(=O)N[C@H](C(=O)NCc2ccc(CN)cc2)[C@H](O)c2ccccc2)cc1` [Example 197, N-[(R)-1-[(1S,2R)-1-(4-Aminomethyl-benzylcarbamoyl)-2-hydroxy-2-phenyl-ethylcarbamoyl]-2-(4-ethoxy-phenyl)-ethyl]-benzamide] were, in that order, 0.012 µM, over 10 µM and over 10 µM.
For `CCOc1ccc(C[C@@H](NC(=O)c2sccc2Cl)C(=O)N[C@H](C(=O)NCc2ccc(CN)cc2)[C@H](O)c2ccccc2)cc1` [Example 198, 3-Chloro-thiophene-2-carboxylic acid [(R)-1-[(1S,2R)-1-(4-aminomethyl-benzylcarbamoyl)-2-hydroxy-2-phenyl-ethylcarbamoyl]-2-(4-ethoxy-phenyl)-ethyl]-amide], the IC50 was 0.007 µM at Human plasma kallikrein, 9.1 µM against Human KLK1 and over 10 µM on Factor XIIa.
